Positions of bridges follow the written chain, without caps; N, C: chain ends. Non-standard residues stand in square brackets, D forms with d. Residues, ends and D or L forms follow the SMILES beside them. Chains are numbered I, II in the order given. ξ: configuration not given here. *: point of attachment. S(3-COOH-4-NO2-phenyl) = O=C(O)c1cc(S*)ccc1[N+](=O)[O-]; C16 diacid = O=C(O)CCCCCCCCCCCCCCC(=O)*; Thr(3ξ) = CC(O)[C@H](N)C(=O)O; ξP = O=C(O)C1CCCN1

Data on 1 molecule can be found in ChEMBL document CHEMBL1133033, “Targeting the dimerization interface for irreversible inhibition of HIV-1 protease” (Bioorg Med Chem Lett, 2000).

Assay [1] concerns the target Human immunodeficiency virus type 1 protease (Human immunodeficiency virus 1) (UniProt Q72874). Nature of the assay: Inhibitory concentration of compound resulting in half-maximal inactivation of HIV-1 protease.
Assay [2] has the same target. In words: Maximal inactivation rate of compound tested against HIV-1 protease.

In turn, `CC[C@H](C)[C@H](NC(=O)[C@H](CCC(N)=O)NC(=O)C1CCCN1C(=O)CCCCCCCCCCCCCCC(=O)N[C@@H](CO)C(=O)N[C@H](C(=O)N[C@@H](CC(C)C)C(=O)N[C@@H](CC(N)=O)C(=O)N[C@@H](CSSc1ccc([N+](=O)[O-])c(C(=O)O)c1)C(=O)O)[C@@H](C)O)C(=O)N[C@H](C(=O)N[C@@H](CC(C)C)C(=O)N[C@@H](Cc1c[nH]c2ccccc12)C(=O)O)C(C)O` (some centres not stated) (I: [ξP]QI[Thr(3ξ)]LW-OH / II: STLNC(S(3-COOH-4-NO2-phenyl))-OH; linker I:N-II:N via C16 diacid) displayed a K inact in assay [1] of 3.7 µM. In assay [2], the Vinact was found to be 0.012 min⁻¹.
